Experimental findings from patent US20050255096A1, “Combination treatment for acute myocardial infarction” (priority 2002, published 2005) are described below.

SMILES strings stand for the structures.

The assay relates to patients with acute myocardial infarction. Put plainly: Effect of the combination on the mortality of the patients with acute myocardial infarction (180 day mortality). The class given is in vivo. The note with it: 6-hour infusion of levosimendan, bolus 6, 12 or 24 μg/kg then 0.1, 0.2 or 0.4 μg/kg/min. The procedure:
Effect of the combination on the mortality of the patients with acute myocardial infarction
Patients who had suffered from acute myocardial infarction within five days received placebo or a 6-hour infusion of levosimendan using a bolus of 6, 12 or 24 μg/kg and subsequent infusion of 0.1, 0.2 or 0.4 μg/kg/min. Patients were divided according to whether they had received thrombolytic therapy or not. The 180 day mortality was measured. It can be seen that the combination provided synergistic reduction in the mortality of patients with acute myocardial infarction.

Where [1] appears, read: patients who did not receive thrombolytic, N = 331.
Setting [2] is: patients who received thrombolytic, N = 70.

Regarding `CC1CC(=O)NN=C1c1ccc(NN=C(C#N)C#N)cc1` (single isomer, unassigned; (-)) [Levosimendan, (−)-enantiomer of [[4-(1,4,5,6-tetrahydro-4-methyl-6-oxo-3-pyridazinyl)phenyl]hydrazono]propanedinitrile], under setting [1], the “180-day mortality, Event (%)” value amounted to 24.8% and the “180-day mortality, Event n” value came to 82. Further, under setting [2], the “180-day mortality, Event (%)” value is on record as 12.8% and the “180-day mortality, Event n” value came to 9.
